According to US11931347B2, “Method of screening for agents for differentiating stem cells” (MINERVA BIOTECHNOLOGIES CORPORATION, priority 2015, dated 2024):

Legend:
[1] = tested on: SK-OV-3 MUC1* positive ovarian cancer cells; assay: cancer cell proliferation assay (Calcein); assay type: cell-based; conditions: 96 hours (FIG. 112)
Experimental: Small molecule inhibition of cancer cell proliferation studies were also performed on several cancer sub-types. […] The small molecules of the invention had the most robust effect on T47D breast cancer cells, which are highly positive for MUC1* growth factor receptor, and its activating ligands NME7AB and NME7-X1. […] For the cancer cell proliferation experiment cancer cells were plated at constant densities (6000 cells/well) into a 96-well White-walled/Clear-bottom Tissue Culture Treated plate (Corning Incorporated, Big Flats, N.Y.). Small molecule analogs are added at T=24 hours in media with 2% FBS. […] […] Calcein fluorescence (final concentration 0.5 uM) is used to assess cell viability. Cancer cell fluorescence is measured in a TECAN SAFIRE^2 spectrophotometer plate reader. The plate is then imaged using an Olympus IX71 fluorescence imaging microscope and montage of the resulting images are assembled using ImageJ.

[2] = tested on: human naïve state stem cells; assay: stem cell drug screening assay on naïve state stem cells; assay type: cell-based; conditions: 500 nM or 1 uM, cells from NME7AB or NME1 dimers, growth factor absent
T47D breast cancer cells = assay: cancer cell proliferation assay (Calcein live cell stain); assay type: cell-based, human; conditions: live cell Calcein stain, 96 hours (FIG. 113)

## Cc1sc2c(c1C)C(c1ccc(Cl)cc1)=N[C@@H](CC(=O)OC(C)(C)C)c1nnc(C)n1-2 [JQ1+, JQ1]
[1]
  effect on growth of SK-OV-3 cells: slight effect
[2]
  effect on naïve stem cell differentiation and growth: dramatically induced differentiation
[2]; listed as JQI
  effect on naïve stem cell differentiation and growth: inhibitory effect
T47D breast cancer cells
  inhibition of growth of T47D cells: inhibited growth
